Source: patent publication US5478817A, “Digitoxigenin and dihydrodigitoxigenin 3β-derivatives and pharmaceutical compositions comprising same for the treatment of cardiovascular disorders” (priority 1992, dated 1995)
Counter-ions that a name gives are not always drawn. Like-named read-outs stand apart in the source and are kept apart here.

Key:
[1] = biological target: T1, purified Na^+,K^+ -ATPase (Homo sapiens, UniProt P05023); test: inhibition of the activity of the purified Na^+,K^+ -ATPase (hydrolysis of ^32 P-ATP); assay type: biochemical
T1 construct: Na^+,K^+ -ATPase receptor purified according to Jorghensen; from tissue
Excerpt: (§1) To test the affinity for the receptor site of the Na^+,K^+ -ATPase and the agonist or inhibitory activity on the enzyme, the following tests were used: a) displacement of the specific ^3 H-ouabain binding from the Na^+,K^+ -ATPase receptor purified according to Jorghensen (Jorghensen P., BBA, 1974,356, 36) and Erdmann (Erdmann E. et al., Arzneim. Forsh., 1984, 34 (II), 1314); b) inhibition of the activity of the purified Na^+,K^+ -ATPase measured as % of hydrolysis of ^32 P-ATP in presence and in absence of the tested compound (Mall F. et al., Biochem. Pharmacol., 1984, 33, 47).
(§2) The affinity and the inhibitory activity of the aglycone digitoxigenin (DIGI), dihydrodigitoxigenin 20(S) (DIGI 20(S)) and dihydrodigitoxigenin 20(R) (DIGI 20(R)) and some basic 3β-derivatives on the two tests are shown in the following table: […]

[2] = biological target: T2, Na^+,K^+ -ATPase receptor (Homo sapiens, UniProt P05023); test: displacement of the specific ^3 H-ouabain binding from the Na^+,K^+ -ATPase receptor
T2 construct: Na^+,K^+ -ATPase receptor purified according to Jorghensen; from tissue
Excerpt: as §1, §2

[3] = test system: spontaneous hypertensive rats (MHS); test: systolic blood pressure and heart rate in hypertensive MHS rats (indirect tail-cuff); assay type: in vivo, rat (MHS); details: 20 mg/Kg/os daily for ten days in Methocel 0.5% w/v, 7 MHS rats; for SBP (systolic blood pressure): controls 171 +/- 4.5; for HR (heart rate): controls 384 +/- 11.0
Method: The ability of these compounds to lower blood pressure in adult hypertensive MHS rats was tested by the following method:
systolic blood pressure (SBP) and heart rate (HR) were measured by an indirect tail-cuff method in three-month old hypertensive MHS rats before beginning treatment (basal values). The rats were then subdivided in two groups of 7 animals each, one receiving the compound and the other, the control group, receiving only the vehicle. The compound, suspended in METHOCEL® 0.5% (w/v), for ten days, was administered daily by mouth. SBP and HR were measured daily 6 and 24 hours after the treatment. When ten-day treatment washout had been under way for at least two days, whether the treatment mantains SBP low or re-establish the basal values was verified. […]

[4] = % hydrolysis of ^32 P-ATP, purified Na^+,K^+ -ATPase, read-out: Inhibitory Activity log IC50 (converted)
[5] = ^3 H-ouabain displacement, purified Na^+,K^+ -ATPase, read-out: Binding ^3 H-Ouab. Displacement log IC50 (converted)

## C[C@]12CC[C@H](SCCCN3CCNCC3)C[C@H]1CC[C@@H]1[C@@H]2CC[C@]2(C)[C@@H](C3=CC(=O)OC3)CC[C@]12O [Comp. I-r, 3β-(3-(1-Piperazinyl)propylthio)-14β-hydroxy-5β-card-20(22)-enolide]
[1]
  IC50: 631 nM
[2]
  IC50: 316 nM

## C[C@]12CC[C@H](SCCCN)C[C@H]1CC[C@@H]1[C@@H]2CC[C@]2(C)[C@@H]([C@H]3COC(=O)C3)CC[C@]12O [Comp. I-l, 3β-(3-Aminopropylthio)-14β-hydroxy-5β-20(S)-cardanolide oxalate]
[1]; [4]
  IC50: 2000 nM
[2]; [5]
  IC50: 251 nM
[3]
  SBP (systolic blood pressure): 147 +/- 4.8 mm Hg
  HR (heart rate): 390 +/- 10.0 beats/min.

## C[C@]12CC[C@H](SCCN3CCCC3)C[C@H]1CC[C@@H]1[C@@H]2CC[C@]2(C)[C@@H](C3=CC(=O)OC3)CC[C@]12O [Comp. I-n, 3β-(2-(1-Pyrrolidinyl)ethylthio)-14β-hydroxy-5β-card-20(22)-enolide sesquioxalate]
[1]
  IC50: 398 nM
[2]
  IC50: 200 nM

## C[C@]12CC[C@H](OCCCN)C[C@H]1CC[C@@H]1[C@@H]2CC[C@]2(C)[C@@H](C3=CC(=O)OC3)CC[C@]12O [Comp. I-d, 3β-(3-Aminopropoxy)-14β-hydroxy-5β-card-20(22)-enolide oxalate]
[1]
  IC50: 631 nM
[2]
  IC50: 126 nM
[3]
  SBP (systolic blood pressure): 148 +/- 3.2 mm Hg
  HR (heart rate): 388 +/- 12.0 beats/min.

## CN(C)CCOCCO[C@H]1CC[C@@]2(C)[C@H](CC[C@@H]3[C@@H]2CC[C@]2(C)[C@@H](C4=CC(=O)OC4)CC[C@]32O)C1 [Comp. I-e, 3β-(2-(2-dimethylaminoethoxy)ethoxy)-14β-hydroxy-5β-card-20(22)-enolide]
[1]
  IC50: 1000 nM
[2]
  IC50: 100 nM
[3]
  SBP (systolic blood pressure): 149 +/- 4.8 mm Hg
  HR (heart rate): 395 +/- 10.0 beats/min.

## C[C@]12CC[C@H](OCC[N+](C)(C)C)C[C@H]1CC[C@@H]1[C@@H]2CC[C@]2(C)[C@@H](C3=CC(=O)OC3)CC[C@]12O [Comp. I-c, 3β-(2-(trimethylammonium)ethoxy)-14β-hydroxy-5β-card-20(22)-enolide chloride]
[1]
  IC50: 501 nM
[2]
  IC50: 251 nM
[3]
  SBP (systolic blood pressure): 152 +/- 5.0 mm Hg
  HR (heart rate): 375 +/- 9.0 beats/min.

## C[C@]12CC[C@H](SCC(O)CN)C[C@H]1CC[C@@H]1[C@@H]2CC[C@]2(C)[C@@H](C3=CC(=O)OC3)CC[C@]12O (stereo partly drawn) [Comp. I-u, 3β-(3-Amino-2-hydroxypropylthio)-14β-hydroxy-5β-card-20(22)-enolide]
[1]
  IC50: 251 nM
[2]
  IC50: 50.1 nM
[3]
  SBP (systolic blood pressure): 152 +/- 5.2 mm Hg
  HR (heart rate): 377 +/- 9.0 beats/min.

## C[C@]12CC[C@H](SCCCN)C[C@H]1CC[C@@H]1[C@@H]2CC[C@]2(C)[C@@H]([C@@H]3COC(=O)C3)CC[C@]12O [Comp. I-m, 3β-Aminopropylthio )-14β-hydroxy-5β-20(R)-cardanolide oxalate]
[1]; [4]
  IC50: 2510 nM
[2]; [5]
  IC50: 398 nM

## C[C@]12CC[C@H](O)C[C@H]1CC[C@@H]1[C@@H]2CC[C@]2(C)[C@@H]([C@H]3COC(=O)C3)CC[C@]12O [DIGI 20(S), dihydrodigitoxigenin 20(S), reference compound]
[1]
  IC50: 2510 nM
[2]
  IC50: 1580 nM

## C[C@]12CC[C@H](SCCN)C[C@H]1CC[C@@H]1[C@@H]2CC[C@]2(C)[C@@H]([C@H]3COC(=O)C3)CC[C@]12O [Comp. I-j, 3β-(2-Aminoethylthio)-14β-hydroxy-5β-20(S) cardanolide oxalate]
[1]; [4]
  IC50: 3160 nM
[2]; [5]
  IC50: 316 nM

## C[C@]12CC[C@H](OCCC(=N)N)C[C@H]1CC[C@@H]1[C@@H]2CC[C@]2(C)[C@@H](C3=CC(=O)OC3)CC[C@]12O [Comp. I-f, 3β-(2-Amidinoethoxy)-14β-hydroxy-5β-card-20(22)-enolide oxalate]
[1]
  IC50: 1580 nM
[2]
  IC50: 158 nM
[3]
  SBP (systolic blood pressure): 153 +/- 5.1 mm Hg
  HR (heart rate): 378 +/- 8.5 beats/min.

## C[C@]12CC[C@H](SCC3CO3)C[C@H]1CC[C@@H]1[C@@H]2CC[C@]2(C)[C@@H](C3=CC(=O)OC3)CC[C@]12O (stereo partly drawn) [Comp. I-h, 3β-(2,3-Epoxy)propylthio-14β-hydroxy-5β-card-20(22)-enolide]
[1]
  IC50: 631 nM
[2]
  IC50: 63.1 nM
[3]
  SBP (systolic blood pressure): 157 +/- 6.0 mm Hg
  HR (heart rate): 382 +/- 6.8 beats/min.

## C[C@]12CC[C@H](SCCN)C[C@H]1CC[C@@H]1[C@@H]2CC[C@]2(C)[C@@H](C3=CC(=O)OC3)CC[C@]12O [Comp. I-i, 3β-(2-Aminoethylthio)-14β-hydroxy-5β-card-20(22)-enolide oxalate]
[1]
  IC50: 631 nM
[2]
  IC50: 100 nM

## CN(C)CCCO[C@H]1CC[C@@]2(C)[C@H](CC[C@@H]3[C@@H]2CC[C@]2(C)[C@@H](C4=CC(=O)OC4)CC[C@]32O)C1 [Comp. I-b, 3β-(3-Dimethylaminopropoxy)-14β-hydroxy-5β-card-20(22)-enolide]
[1]
  IC50: 5010 nM
[2]
  IC50: 200 nM

## C[C@]12CC[C@H](SCCCN)C[C@H]1CC[C@@H]1[C@@H]2CC[C@]2(C)[C@@H](C3=CC(=O)OC3)CC[C@]12O [Comp. I-k, 3β-(3-Aminopropylthio)-14β-hydroxy-5β-card-20(22)-enolide oxalate]
[1]
  IC50: 501 nM
[2]
  IC50: 79.4 nM
[3]
  SBP (systolic blood pressure): 155 +/- 4.2 mm Hg
  HR (heart rate): 385 +/- 11.0 beats/min.

## C[C@]12CC[C@H](SCC[N+](C)(C)C)C[C@H]1CC[C@@H]1[C@@H]2CC[C@]2(C)[C@@H](C3=CC(=O)OC3)CC[C@]12O [Comp. I-p, 3β-(2-(Trimethylammonium)ethylthio)-14β-hydroxy-5β-card-20(22)-enolide chloride]
[1]
  IC50: 794 nM
[2]
  IC50: 100 nM
[3]
  SBP (systolic blood pressure): 150 +/- 3.5 mm Hg
  HR (heart rate): 378 +/- 9.3 beats/min.

## C[C@]12CC[C@H](O)C[C@H]1CC[C@@H]1[C@@H]2CC[C@]2(C)[C@@H](C3=CC(=O)OC3)CC[C@]12O [DIGI, digitoxigenin]
[1]
  IC50: 316 nM
[2]
  IC50: 316 nM
[3]
  SBP (systolic blood pressure): 173 +/- 4.0 mm Hg
  HR (heart rate): 380 +/- 10.0 beats/min.

## C[C@]12CC[C@H](OCCN3CCCC3)C[C@H]1CC[C@@H]1[C@@H]2CC[C@]2(C)[C@@H](C3=CC(=O)OC3)CC[C@]12O [Comp. I-a, 3β-(2-(1-Pyrrolidinyl)ethoxy)-14β-hydroxy-5β-card-20(22)-enolide]
[1]
  IC50: 251 nM
[2]
  IC50: 63.1 nM

## C[C@]12CC[C@H](O)C[C@H]1CC[C@@H]1[C@@H]2CC[C@]2(C)[C@@H]([C@@H]3COC(=O)C3)CC[C@]12O [DIGI 20(R), dihydrodigitoxigenin 20(R), reference compound]
[1]
  IC50: 7940 nM
[2]
  IC50: 2510 nM

## C[C@]12CC[C@H](SCC(O)CO)C[C@H]1CC[C@@H]1[C@@H]2CC[C@]2(C)[C@@H](C3=CC(=O)OC3)CC[C@]12O (stereo partly drawn) [Comp. I-s, 3β-(2,3-Dihydroxypropylthio)-14β-hydroxy-5β-card-20(22)-enolide]
[1]
  IC50: 631 nM
[2]
  IC50: 79.4 nM
[3]
  SBP (systolic blood pressure): 149 +/- 4.1 mm Hg
  HR (heart rate): 394 +/- 6.3 beats/min.

## C[C@]12CC[C@H](SCCCN3CCCC3)C[C@H]1CC[C@@H]1[C@@H]2CC[C@]2(C)[C@@H](C3=CC(=O)OC3)CC[C@]12O [Comp. I-q, 3β-(3-(1-Pyrrolidinyl)propylthio)-14β-hydroxy-5β-card-20(22)-enolide oxalate]
[1]
  IC50: 251 nM
[2]
  IC50: 158 nM
